Measured values from US9631170B2, “Genetically inducible hydrogen peroxide resistance and production” (University of Wyoming, priority 2011, dated 2017).

How the values were obtained:
[1] = test system: Synechococcus elongatus PCC 7942; conditions: non-linear regression of dose response data, FIG. 11; wild type vs insertional katG null mutant
Method: These experiments generate dose response curves for growth versus H2O2-based algaecide concentration. […] EC50 for growth rate is determined from non-linear regression curves fitted to growth rate data from 5-7 experimental replicates at 5 to 7 stress doses. To fit curves, non-linear regressions are applied to the dose response data and the fit of the regression curve to the log-logistic equation will be F-tested.
One of these strains was a wild type (WT) and one was an insertional null mutant for the major cyanobacterial catalase encoded by the katG gene.

[2] = test system: plant chloroplasts; conditions: H2O2 concentrations as low as 10 μM; cited from earlier work

## OO [H2O2, hydrogen peroxide]
[1]
  resistance to exogenous H2O2 of wild type relative to katG null mutant lacking catalase activity: ~2 fold
[2]
  decrease of photosynthetic carbon fixation: 50%
